Results from BindingDB's records for doi:10.1074/jbc.M114.557629 (Weizmann Institute of Science, 2014).

Assays:
[1] = target: Sodium/potassium-transporting ATPase subunit alpha-1/beta-1 (Homo sapiens, UniProt P05023+P05026); assay: Na,K-ATPase Inhibition Assay
[2] = target: Sodium/potassium-transporting ATPase subunit alpha-2/beta-1 (Homo sapiens, UniProt P05026+P50993); assay: Na,K-ATPase Inhibition Assay

Structure (SMILES) | Ki [1] [nM] | Ki [2] [nM]
C[C@]12CC[C@H](O)C[C@H]1CC[C@@H]1[C@@H]2C[C@@H](O)[C@]2(C)[C@@H](C3=CC(=O)OC3)CC[C@]12O [CS337] | 139 | 130
CC1CN(C(C)C(N)=O)CCC(O[C@@H]2[C@H](C)O[C@@H](O[C@@H]3[C@H](C)O[C@@H](O[C@H]4CC[C@@]5(C)C(CCC6C5C[C@H](O)[C@]5(C)[C@@H](C7=CC(=O)OC7)CC[C@]65O)C4)C[C@@H]3O)C[C@@H]2O)O1 (some centres not stated) [DAlaN (5)] | 232 | 67
CCN1CCC(O[C@@H]2[C@H](C)O[C@@H](O[C@@H]3[C@H](C)O[C@@H](O[C@H]4CC[C@@]5(C)C(CCC6C5C[C@H](O)[C@]5(C)[C@@H](C7=CC(=O)OC7)CC[C@]65O)C4)C[C@@H]3O)C[C@@H]2O)OC(C)C1 (some centres not stated) [DEt (12)] | 53 | 18.5
CC1CN(CCN)CCC(O[C@@H]2[C@H](C)O[C@@H](O[C@@H]3[C@H](C)O[C@@H](O[C@H]4CC[C@@]5(C)C(CCC6C5C[C@H](O)[C@]5(C)[C@@H](C7=CC(=O)OC7)CC[C@]65O)C4)C[C@@H]3O)C[C@@H]2O)O1 (some centres not stated) [DEtDA (10)] | 69 | 16.7
COC(=O)CN1CCC(O[C@@H]2[C@H](C)O[C@@H](O[C@@H]3[C@H](C)O[C@@H](O[C@H]4CC[C@@]5(C)C(CCC6C5C[C@H](O)[C@]5(C)[C@@H](C7=CC(=O)OC7)CC[C@]65O)C4)C[C@@H]3O)C[C@@H]2O)OC(C)C1 (some centres not stated) [DGlMe (3)] | 540 | 128
CC1CN(CC(=O)O)CCC(O[C@@H]2[C@H](C)O[C@@H](O[C@@H]3[C@H](C)O[C@@H](O[C@H]4CC[C@@]5(C)C(CCC6C5C[C@H](O)[C@]5(C)[C@@H](C7=CC(=O)OC7)CC[C@]65O)C4)C[C@@H]3O)C[C@@H]2O)O1 (some centres not stated) [DGly (2)] | 124 | 25
CC1CN(CC(N)=O)CCC(O[C@@H]2[C@H](C)O[C@@H](O[C@@H]3[C@H](C)O[C@@H](O[C@H]4CC[C@@]5(C)C(CCC6C5C[C@H](O)[C@]5(C)[C@@H](C7=CC(=O)OC7)CC[C@]65O)C4)C[C@@H]3O)C[C@@H]2O)O1 (some centres not stated) [DGlyN (4)] | 152 | 20.4
CC1CN(C)CCC(O[C@@H]2[C@H](C)O[C@@H](O[C@@H]3[C@H](C)O[C@@H](O[C@H]4CC[C@@]5(C)C(CCC6C5C[C@H](O)[C@]5(C)[C@@H](C7=CC(=O)OC7)CC[C@]65O)C4)C[C@@H]3O)C[C@@H]2O)O1 (some centres not stated) [DMe (11)] | 101 | 15.6
CC1CN(CC(F)(F)F)CCC(O[C@@H]2[C@H](C)O[C@@H](O[C@@H]3[C@H](C)O[C@@H](O[C@H]4CC[C@@]5(C)C(CCC6C5C[C@H](O)[C@]5(C)[C@@H](C7=CC(=O)OC7)CC[C@]65O)C4)C[C@@H]3O)C[C@@H]2O)O1 (some centres not stated) [DMeCF3 (13)] | 199 | 44
CC1CN(O)CCC(O[C@@H]2[C@H](C)O[C@@H](O[C@@H]3[C@H](C)O[C@@H](O[C@H]4CC[C@@]5(C)C(CCC6C5C[C@H](O)[C@]5(C)[C@@H](C7=CC(=O)OC7)CC[C@]65O)C4)C[C@@H]3O)C[C@@H]2O)O1 (some centres not stated) [DOH (1)] | 311 | 134
CC1CN(CCC(N)=O)CCC(O[C@@H]2[C@H](C)O[C@@H](O[C@@H]3[C@H](C)O[C@@H](O[C@H]4CC[C@@]5(C)C(CCC6C5C[C@H](O)[C@]5(C)[C@@H](C7=CC(=O)OC7)CC[C@]65O)C4)C[C@@H]3O)C[C@@H]2O)O1 (some centres not stated) [DPrN (9)] | 249 | 47
CC1CN(NC(N)=O)CCC(O[C@@H]2[C@H](C)O[C@@H](O[C@@H]3[C@H](C)O[C@@H](O[C@H]4CC[C@@]5(C)C(CCC6C5C[C@H](O)[C@]5(C)[C@@H](C7=CC(=O)OC7)CC[C@]65O)C4)C[C@@H]3O)C[C@@H]2O)O1 (some centres not stated) [DSCar (8)] | 102 | 20
CC1CN(C(CO)C(=O)O)CCC(O[C@@H]2[C@H](C)O[C@@H](O[C@@H]3[C@H](C)O[C@@H](O[C@H]4CC[C@@]5(C)C(CCC6C5C[C@H](O)[C@]5(C)[C@@H](C7=CC(=O)OC7)CC[C@]65O)C4)C[C@@H]3O)C[C@@H]2O)O1 (some centres not stated) [DSer (6)] | 316 | 145
CC1CN(C(CO)C(N)=O)CCC(O[C@@H]2[C@H](C)O[C@@H](O[C@@H]3[C@H](C)O[C@@H](O[C@H]4CC[C@@]5(C)C(CCC6C5C[C@H](O)[C@]5(C)[C@@H](C7=CC(=O)OC7)CC[C@]65O)C4)C[C@@H]3O)C[C@@H]2O)O1 (some centres not stated) [DSerN (7)] | 242 | 144
CC1CN(C(CC(=O)O)CC(=O)O)CCC(O[C@@H]2[C@H](C)O[C@@H](O[C@@H]3[C@H](C)O[C@@H](O[C@H]4CC[C@@]5(C)C(CCC6C5C[C@H](O)[C@]5(C)[C@@H](C7=CC(=O)OC7)CC[C@]65O)C4)C[C@@H]3O)C[C@@H]2O)O1 (some centres not stated) [DbisGly (14)] | 80 | 34.9
C[C@H]1O[C@@H](O[C@H]2[C@@H](O)C[C@H](O[C@H]3CC[C@@]4(C)[C@H](CC[C@@H]5[C@@H]4C[C@@H](O)[C@]4(C)[C@@H](C6=CC(=O)OC6)CC[C@]54O)C3)O[C@@H]2C)C[C@H](O)[C@@H]1O [Dbis] | 196 | 74
